Where two headings read alike, the source gives them in different places.
Columns and labels:
HIV-1 = HIV-1 single-round infectious luciferase reporter virus (pseudotype) assay in HeLa CD4 CCR5 cells; format: cell-based
How it was run: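 Reporter pseudovirus produced in 293 cells infected HeLa cells expressing CD4/CCR5 at MOI ~0.01, with compound present at <10 μM final. Infection was quantified as luciferase luminescence after 72 h.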

HeLa cells = test: Cytotoxicity assay in HeLa cells (MTT dye reduction, CC50)
Method: • Virus production—Human embryonic Kidney cell line, 293, propagated in Dulbecco's Modified Eagle Medium (Life Technologies, Gaithersburg, Md.) containing 10% fetal Bovine serum (FBS, Sigma, St. Louis, Mo.). • Virus infection—Human epithelial cell line, HeLa, expressing the HIV-1 receptors CD4 and CCR^5 was propagated in Dulbecco's Modified Eagle Medium (Life Technologies, Gaithersburg, Md.) containing 10% fetal Bovine serum (FBS, Sigma, St. Louis, Mo.) and supplemented with 0.2 mg/mL Geneticin (Life Technologies, Gaithersburg, Md.) and 0.4 mg/mL Zeocin (Invitrogen, Carlsbad, Calif.). […] Transfections were performed using lipofectAMINE PLUS reagent as described by the manufacturer (Life Technologies, Gaithersburg, Md.). Experiment • 1. Compound was added to HeLa CD4 CCR5 cells plated in 96 well plates at a cell density of 5×10^4 cells per well in 100 μl Dulbecco's Modified Eagle Medium containing 10% fetal Bovine serum at a concentration of […]. • 2. 100 μl of single-round infectious reporter virus in Dulbecco's Modified Eagle Medium was then added to the plated cells and compound at an approximate multiplicity of infection (MOI) of 0.01, resulting in a final volume of 200 μl per well and a final compound concentration of <10 μM. • 3. Samples were harvested 72 h after infection. • 4. Viral infection was monitored by measuring luciferase expression from viral DNA in the infected cells using a luciferase reporter gene assay kit (Roche Molecular Biochemicals, Indianapolis, Ind.). Infected cell supernatants were removed and 50 μl of Dulbecco's Modified Eagle Medium (without phenol red) and 50 μl of luciferase assay reagent reconstituted as described by the manufacturer (Roche Molecular Biochemicals, Indianapolis, Ind.) was added per well. Luciferase activity was then quantified by measuring luminescence using a Wallac microbeta scintillation counter. • 5. […] An EC50 provides a method for comparing the antiviral potency of the compounds of this invention. The effective concentration for fifty percent inhibition (EC50) was calculated with the Microsoft Excel Xlfit curve fitting software. For each compound, curves were generated from percent inhibition calculated at 10 different concentrations by using a four paramenter logistic model (model 205). Table 1 is the key for the data in Tables 2-4. Cytoxicity assays were conducted with the same HeLa using methodology well known in the art.
(§1) For accuracy, the determined measure of viral inhibition is an EC50; but the minimum plasma concentrations which should be maintained in a patient is generally believed to be at least four or five fold higher. […] Lower is better. • 4) Estimating potential exposure in man by measuring parameters such as AUC and rate of clearance by oral and iv dosing in rats. High exposure and low clearance was desired.

[1] = Metabolic stability in pooled human liver microsomes (HLM); details: 3 μM drug
Method: Metabolic Stability Studies of compounds in Liver Microsomes. The metabolic stability of compounds were investigated in pooled liver microsomes from humans. The human liver microsomes were obtained from BD Gentest (Lot #16, Woburn, Mass.) with a protein concentration of 20 mg/ml and a total cytochrome P450 (CYP) concentration of 0.55 nmol/mg protein. A stock solution of drug was prepared in acetonitrile at 1 mM. […] The incubation media consisted of potassium phosphate buffer (0.1 M, pH 7.4), liver microsomes (final concentration 0.9 mg/ml), magnesium chloride (0.033 mM), and a NADPH-regenerating system. […] The test compound was pre-incubated in the media for 2 min. The reaction was initiated by the addition of the cofactors. The incubation was carried out at 37° C. for 10 min. The reaction was terminated by drawing an aliquot of 100 μL from the incubation and adding into 200 μL of acetonitrile containing a reference compound as an […] analytical standard. Following vortex-mixing and centrifugation, an aliquot of 10 μL of the supernatant was analyzed by LC/MS.
GUIDELINES can be used to categorized test substances as low, intermediate or highly cleared compounds.
as §1
The stability of compounds were also evaluated to determine metabolic stability when incubated in in vitro preparations of human liver microsomes (HLM). This is one commonly used predictive system for evaluating the potential for human metabolism and projecting clearance rates in man. Compounds with low clearance rates were most desireable.

[2] = Human immunodeficiency virus 1, HeLa-CD4/CCR5, read-out: EC50 Group from TABLE 1, HeLa CD4 CCR5 cells, single-round infectious luciferase reporter virus
[3] = Human immunodeficiency virus 1, HeLa-CD4/CCR5, read-out: EC50 category, HIV-1 single-round reporter virus assay, category 1/2/3 per Table A1 key
[4] = cytotoxicity, Yes = CC50 above 100 uM, No = not
[5] = pooled human liver microsomes, Low/Intermediate/High
[6] = Human immunodeficiency virus 1, HeLa-CD4/CCR5, read-out: EC50 Group from Table 1, Table 4, HeLa CD4 CCR5 cells, single-round luciferase reporter virus
[7] = Human immunodeficiency virus 1, HeLa-CD4/CCR5, read-out: EC50 Group from Table 1, Table 2-1, HeLa CD4 CCR5 cells, single-round luciferase reporter virus

Compound | EC50 (HIV-1; [2]) [nM] | EC50 (HIV-1; [3]) [nM] | CC50 > 100 uM (HeLa cells; [4]) | HLM predicted human clearance class [1, 5] | EC50 (HIV-1; [6]) [nM] | EC50 (HIV-1; Human immunodeficiency virus 1, HeLa-CD4/CCR5, 72 h, read-out: EC50 Group from Table 1, HeLa CD4 CCR5 cells, luciferase reporter virus, harvested 72 h after infection) [nM] | EC50 (HIV-1; [7]) [nM] | EC50 (HIV-1; Human immunodeficiency virus 1, HeLa-CD4/CCR5, read-out: EC50 category, initial pseudotype assay, key in Table A1) [nM] | CC50 > 100 uM (HeLa cells; HeLa cells, six days with drug, MTT) | HLM predicted human clearance class ([1]; 0.9 mg/ml microsomes, 37° C., 10 min)
COc1cnc(-c2nccs2)c2[nH]cc(C(=O)C(=O)N3CCN(C(=O)c4ccccc4)CC3)c12 [Example 35, 1-(benzoyl)-4-[(4-methoxy-7-(thiazol-2-yl)-6-azaindol-3-yl)-oxoacetyl]piperazine] | < 1000 | < 0.2 | Yes | Intermediate (0.101-0.200) |  |  |  |  |  | 
COc1cnc(-c2cncs2)c2[nH]cc(C(=O)C(=O)N3CCN(C(=O)c4ccccc4)CC3)c12 [Example 71, 1-benzoyl-4-[(4-methoxy-7-(thioazol-5-yl)-6-azaindol-3-yl)-oxoacetyl]piperazine] | < 1000 | < 0.2 | Yes | Intermediate (0.101-0.200) |  |  |  |  |  | 
O=C(C(=O)N1CCN(C(=O)c2ccccc2)CC1)c1c[nH]c2c(-c3cn(-c4ccccc4)nn3)ccnc12 [Example 161] |  | < 0.2 | Yes | High (0.201-0.300) | < 1000 |  |  |  |  | 
O=C(C(=O)N1CCN(C(=O)c2ccccc2)CC1)c1c[nH]c2c(-n3cncn3)ccnc12 [Example 207, 1-(4-benzoyl-piperazin-1-yl)-2-(7-[1,2,4]triazol-1-yl-1H-pyrrolo[3,2-b]pyridin-3-yl)-ethane-1,2-dione] |  | 0.2 to 1000 | Yes | Low (0-0.100) | < 1000 |  |  |  |  | 
Cc1ccn(-c2ccnc3c(C(=O)C(=O)N4CCN(C(=O)c5ccccc5)[C@H](C)C4)c[nH]c23)n1 [Example 356] |  | 0.2 to 1000 | Yes | Low (0-0.100) |  | < 1000 |  |  |  | 
COc1cnc(-c2nc(C)n[nH]2)c2[nH]cc(C(=O)C(=O)N3CCN(C(=O)c4ccccc4)CC3)c12 [Example 342] | < 1000 | < 0.2 | Yes | Low (0-0.100) |  |  |  |  |  | 
COc1cnc(-n2cnc(C(=O)N(C)C)n2)c2[nH]cc(C(=O)C(=O)N3CCN(C(=O)c4ccccc4)CC3)c12 [Example 275, 1-benzoyl-4-[(4-methoxy-7-(3-dimethylaminocarbonyl-1,2,4-triazol-1-yl)-6-azaindol-3-yl)-oxoacetyl]piperazine] | < 1000 | < 0.2 | Yes | Low (0-0.100) |  |  |  |  |  | 
COc1cnc(-n2ncc(C)n2)c2[nH]cc(C(=O)C(=O)N3CCN(C(=O)c4ccccc4)[C@H](C)C3)c12 [Example 328] |  |  |  |  |  |  | < 1000 | < 0.2 | Yes | Low (0-0.100)
COc1cnc(-c2ncco2)c2[nH]cc(C(=O)C(=O)N3CCN(C(=O)c4ccccc4)CC3)c12 [Example 74, 1-benzoyl-4-[(4-methoxy-7-(oxazol-2-yl)-6-azaindol-3-yl)-oxoacetyl]piperazine] | < 1000 | 0.2 to 1000 | No | Intermediate (0.101-0.200) |  |  |  |  |  | 
O=C(C(=O)N1CCN(C(=O)c2ccccc2)CC1)c1c[nH]c2c(N3CCCC3)ncc(F)c12 [Example 221] | < 1000 | 0.2 to 1000 | Yes | Low (0-0.100) |  |  |  |  |  | 
CNC(=O)c1ncn(-c2ncc(OC)c3c(C(=O)C(=O)N4CCN(C(=O)c5ccccc5)CC4)c[nH]c23)n1 [Example 274, 1-benzoyl-4-[(4-rnethoxy-7-(3-methylaminocarbonyl-1,2,4-triazol-1-yl)-6-azaindol-3-yl)-oxoacetyl]piperazine] | < 1000 | < 0.2 | Yes | Low (0-0.100) |  |  |  |  |  | 
COc1cnc(-n2ccc(C)n2)c2[nH]cc(C(=O)C(=O)N3CCN(C(=O)c4ccccc4)[C@H](C)C3)c12 [Example 241, (R)-1-benzoyl-2-methyl-4-[(4-methoxy-7-(3-methyl-pyrazol-1-yl)-6-azaindol-3-yl)-oxoacetyl]piperazine] |  | < 0.2 | Yes | Low (0-0.100) |  |  | < 1000 |  |  | 
Cn1ccc(-c2ncc(F)c3c(C(=O)C(=O)N4CCN(C(=O)c5ccccc5)CC4)c[nH]c23)n1 [Example 29, 1-benzoyl-4-[(4-fluoro-7-(1-methyl-pyrazol-3-yl)-6-azaindol-3-yl)-oxoacetyl]piperazine] | < 1000 | 0.2 to 1000 | No | High (0.201-0.300) |  |  |  |  |  | 
COc1cnc(-c2cc[nH]n2)c2[nH]cc(C(=O)C(=O)N3CCN(C(=O)c4ccccc4)CC3)c12 [Example 39, 1-benzoyl-4-[(4-methoxy-7-(pyrazol-3-yl)-6-azaindol-3-yl)-oxoacetyl]piperazine] | < 1000 | 0.2 to 1000 | No | Intermediate (0.101-0.200) |  |  |  |  |  | 
O=C(C(=O)N1CCN(C(=O)c2ccccc2)CC1)c1c[nH]c2c(-c3cncnc3)ncc(F)c12 [Example 42, 1-benzoyl-4-[(4-fluoro-7-(pydin-5-yl)-6-azaindol-3-yl)-oxoacetyl]piperazine] | < 1000 | 0.2 to 1000 | Yes | Low (0-0.100) |  |  |  |  |  | 
C[C@@H]1CN(C(=O)c2ccccc2)CCN1C(=O)C(=O)c1c[nH]c2c(-n3cccn3)ncc(Br)c12 [Example 139] | < 1000 | 0.2 to 1000 | Yes | High (0.201-0.300) |  |  |  |  |  | 
COc1cnc(-n2cnc(N)n2)c2[nH]cc(C(=O)C(=O)N3CCN(C(=O)c4ccccc4)[C@H](C)C3)c12 [Example 258, (R)-1-benzoyl-2-methyl-4-[(4-methoxy-7-(3-amino-1,2,4-triazol-1-yl)-6-azaindol-3-yl)-oxoacetyl]piperazine] |  | < 0.2 | Yes | Low (0-0.100) |  |  | < 1000 |  |  | 
O=C(C(=O)N1CCN(C(=O)c2ccccc2)CC1)c1c[nH]c2c(-c3c[nH]nn3)ncc(F)c12 [Example 299] | < 1000 | < 0.2 | No | Low (0-0.100) |  |  |  |  |  | 
COc1cnc(-n2cc(C)nn2)c2[nH]cc(C(=O)C(=O)N3CCN(C(=O)c4ccccc4)CC3)c12 [Example 325] | < 1000 | < 0.2 | Yes | Low (0-0.100) |  |  |  |  |  | 

Source: patent publication US20050090522A1 (priority 2001, published 2005)
